Reference: US8501936B2 (priority 2009, dated 2013)

Key:
human FAK = human FAK (Homo sapiens (Human), UniProt Q05397); settings: read-out: FAK IC50
Method: The ability of compounds to inhibit the kinase activity of baculovirus-expressed human FAK and PYK2 was measured using the 96-well plate TRF assay system described above for JAK2. […] For the FAK kinase assay, the reaction mixture (total volume=100 μL/well) contained 20 mM HEPES (pH 7.2), 10 μM ATP, 5 mM MgCl2, 0.5 mM DTT, 0.1% BSA, and test compound (diluted in DMSO; 2.5% DMSO final in assay). For PYK2, the 100 μL assay solution consisted of 20 mM HEPES (pH 7.2), 3 μM ATP, 5 mM MnCl2, 0.1% BSA, and test compound (diluted in DMSO; 2.5% DMSO final in assay). Enzyme (10 ng/mL FAK or 25 ng/mL PYK2) was added and the reaction was allowed to proceed at room temperature for 30 min. Detection of the phosphorylated product was performed by adding 100 μL/well of Eu—N1 labeled PY100 antibody diluted 1:75000 in 0.25% BSA in TBS-T (PerkinElmer #AD0041). […] Inhibition data were analyzed using ActivityBase and IC50 curves generated using XLFit.

human JAK2 = human JAK2 (Homo sapiens (Human), UniProt O60674); settings: read-out: JAK2 IC50
Sequence of human JAK2 (O60674 815-1132): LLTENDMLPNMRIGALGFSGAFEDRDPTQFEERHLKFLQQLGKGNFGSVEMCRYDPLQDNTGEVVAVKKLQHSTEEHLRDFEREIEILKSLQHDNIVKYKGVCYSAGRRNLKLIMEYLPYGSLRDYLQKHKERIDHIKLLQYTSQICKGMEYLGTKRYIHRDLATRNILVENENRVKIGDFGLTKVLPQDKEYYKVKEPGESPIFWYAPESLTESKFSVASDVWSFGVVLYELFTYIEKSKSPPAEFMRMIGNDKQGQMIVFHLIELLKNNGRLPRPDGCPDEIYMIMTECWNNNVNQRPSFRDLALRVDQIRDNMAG

Sequence of human FAK (Q05397 whole entry): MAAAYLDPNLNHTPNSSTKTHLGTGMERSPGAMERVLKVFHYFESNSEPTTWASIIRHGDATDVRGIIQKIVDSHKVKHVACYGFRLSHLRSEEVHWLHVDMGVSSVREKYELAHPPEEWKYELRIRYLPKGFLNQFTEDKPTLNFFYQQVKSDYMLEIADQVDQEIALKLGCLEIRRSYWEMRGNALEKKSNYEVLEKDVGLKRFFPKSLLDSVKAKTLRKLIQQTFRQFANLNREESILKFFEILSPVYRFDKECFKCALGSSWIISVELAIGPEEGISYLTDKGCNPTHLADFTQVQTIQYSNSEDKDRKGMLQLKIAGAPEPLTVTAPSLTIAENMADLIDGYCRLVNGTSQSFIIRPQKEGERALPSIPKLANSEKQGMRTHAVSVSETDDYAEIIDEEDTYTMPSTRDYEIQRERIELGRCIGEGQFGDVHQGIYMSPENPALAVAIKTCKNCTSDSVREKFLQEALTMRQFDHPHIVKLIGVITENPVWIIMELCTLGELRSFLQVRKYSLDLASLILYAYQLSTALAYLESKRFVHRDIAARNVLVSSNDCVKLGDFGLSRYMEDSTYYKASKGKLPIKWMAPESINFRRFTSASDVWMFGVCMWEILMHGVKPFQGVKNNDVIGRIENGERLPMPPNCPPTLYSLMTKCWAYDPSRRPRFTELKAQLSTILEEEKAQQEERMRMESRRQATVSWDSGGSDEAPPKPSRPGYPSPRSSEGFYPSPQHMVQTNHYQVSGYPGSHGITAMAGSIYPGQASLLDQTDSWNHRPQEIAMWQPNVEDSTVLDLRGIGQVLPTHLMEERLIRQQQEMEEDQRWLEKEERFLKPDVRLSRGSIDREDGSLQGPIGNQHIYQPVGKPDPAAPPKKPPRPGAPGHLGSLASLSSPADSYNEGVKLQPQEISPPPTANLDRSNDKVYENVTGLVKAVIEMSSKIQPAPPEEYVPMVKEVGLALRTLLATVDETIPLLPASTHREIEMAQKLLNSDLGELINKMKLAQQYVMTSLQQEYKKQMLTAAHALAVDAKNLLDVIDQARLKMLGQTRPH

Row | Compound | IC50 (human FAK) [µM] | IC50 (human JAK2) [µM]
1 | CCOc1ccc(C(F)(F)F)cc1-c1cccn2nc(Nc3ccc4c(c3)CCN(CCS(C)(=O)=O)CC4)nc12 [Example 320, [8-(2-Ethoxy-5-trifluoromethyl-phenyl)-[1,2,4]triazolo[1,5-a]pyridin-2-yl]-[3-(2-methanesulfonyl-ethyl)-2,3,4,5-tetrahydro-1H-3-benzazepin-7yl)-amine] | 3 | 0.16
2 | COc1cc(Cl)ccc1-c1cccn2nc(Nc3ccc4c(c3)CCN(CC(=O)N(C)C)C4)nc12 [Example 331, 2-{6-[8-(4-Chloro-2-methoxy-phenyl)-[1,2,4]-triazolo[1,5-a]pyridin-2-ylamino]-3,4-dihydro-1H-isoquinolin-2-yl}-N,N-dimethyl-acetamide] | 6.5 | 0.0213
3 | Cc1ccc(-c2cccn3nc(Nc4ccc5c(c4)CCNCC5)nc23)c(OCC(C)C)c1 [Example 296, [8-(2-Isobutoxy-4-methyl-phenyl]-[1,2,4]triazolo[1,5a]pyridine-2-yl]-(2,3,4,5-tetrahydro-benzo[d]azepin-7-yl)-amine] | 3 | 2.8
4 | COc1cc(F)ccc1-c1cccn2nc(Nc3ccc4c(c3)CCN(CC(=O)N(C)C)CC4)nc12 [Example 324, 2-{7-[8-(4-Fluoro-2-methoxy-phenyl)-[1,2,4]triazolo[1,5-a]pyridin-2-ylamino]-1,2,4,5-tetrahydro-3-benzazepin-3-yl}-N,N-dimethyl-acetamide] | 3 | 0.047
5 | COc1ccc(Nc2nc3c(Nc4ccc(S(C)(=O)=O)cc4)cccn3n2)cc1 [Example 38, N(8)-(4-Methanesulfonyl-phenyl)-N(2)-(4-methoxy-phenyl)-[1,2,4]triazolo[1,5-a]pyridine-2,8-diamine] | 10 | 0.47
6 | CN1CCN(c2ccc(Nc3nc4c(NCc5cccnc5N(C)S(C)(=O)=O)cccn4n3)cc2)CC1 [Example 122, N-Methyl-N-[3-({2-[4-(4-methyl-piperazin-1-yl)-phenylamino]-[1,2,4]triazolo[1,5-a]pyridin-8-ylamino}-methyl)-pyridin-2-yl]-methanesulfonamide] | 0.03 | 0.0207
7 | CN1CCN(c2cccc(Nc3nc4cncc(-c5ccc(S(C)(=O)=O)cc5)n4n3)c2)CC1 [Example 107, [5-(4-Methanesulfonyl-phenyl)-[1,2,4]triazolo[1,5-a]pyrazin-2-yl]-[3-(4-methyl-piperazin-1-yl)-phenyl]-amine] | 0.855 | 0.307
8 | CN1CCN(c2cccc(Nc3nc4c(-c5ccc(S(C)(=O)=O)cc5)cccn4n3)c2)CC1 [Example 35, [8-(4-Methanesulfonyl-phenyl)-[1,2,4]triazolo[1,5-a]pyridin-2-yl]-[3-(4-methyl-piperazin-1-yl)-phenyl]-amine] | 1.06 | 0.0013
9 | COc1ccccc1-c1cccn2nc(Nc3ccc4c(c3)CCN(CC(=O)N(C)C)CC4)nc12 [Example 313, 2-{7-[8-(2-Methoxy-phenyl)-[1,2,4]triazolo[1,5-a]pyridine-2-ylamino]-1,2,4,5-tetrahydro-3-benzazepin-3-yl}-N,N-dimethyl-acetamide] | 10 | 0.0392
10 | COc1ccc(Nc2nc3c(C4=CCN(S(C)(=O)=O)CC4)cccn3n2)cc1 [Example 34, [8-(1-Methanesulfonyl-1,2,3,6-tetrahydro-pyridin-4-yl)-[1,2,4]triazolo[1,5-a]pyridin-2-yl]-(4-methoxy-phenyl)-amine] |  | 0.001
11 | COc1ccc(C(F)(F)F)cc1Nc1cccn2nc(Nc3cccc(N4CCN(C)CC4)c3)nc12 [Example 290, N(8)-(2-Methoxy-5-trifluoromethyl-phenyl)-N(2)-[3-(4-methyl-piperazin-1-yl)-phenyl]-[1,2,4]triazolo[1,5-a]pyridine-2,8-diamine] |  | 3
12 | Cc1nn(C)c(C)c1Nc1nc2c(-c3ccc(S(C)(=O)=O)cc3)cccn2n1 [Example 210, [8-(4-Methanesulfonyl-phenyl)-[1,2,4]triazolo[1,5-a]pyridin-2-yl]-(1,3,5-trimethyl-1H-pyrazol-4-yl)-amine] |  | 3
13 | c1cc(-c2ccncc2)c2nc(Nc3ccc(OCCN4CCCC4)cc3)nn2c1 [Example 15, (8-pyridin-4-yl-[1,2,4]triazolo[1,5-a]pyridin-2-yl)-[4-(2-pyrrolidin-1-yl-ethoxy)-phenyl]-amine] |  | 3
14 | CN1CCN(c2ccc(Nc3nc4ccc(-c5ccc(S(C)(=O)=O)cc5)cn4n3)cc2)CC1 [Example 37, [6-(4-Methanesulfonyl-phenyl)-[1,2,4]triazolo[1,5-a]pyridin-2-yl]-[4-(4-methyl-piperazin-1-yl)-phenyl]-amine] |  | 2.97
15 | COc1ccccc1Nc1nc2c(-c3cccc(C(F)(F)F)c3)cccn2n1 [Example 21, (2-Methoxy-phenyl)-[8-(3-trifluoromethyl-phenyl)-[1,2,4]triazolo[1,5-a]pyridin-2-yl]-amine] |  | 3
16 | CC(C)(C)OC(=O)N1CCN(c2ccc(Nc3nc4cccc(-c5ccccc5)n4n3)cc2)CC1 [Example 77, 4-[4-(5-Phenyl-[1,2,4]triazolo[1,5-a]pyridin-2-ylamino)-phenyl]-piperazine-1-carboxylic acid tert-butyl ester] |  | 0.0066
17 | COc1cnc(-c2cccn3nc(Nc4ccc(C5CCN(C(=O)OC(C)(C)C)CC5)cc4)nc23)cn1 [Example 284, 4-{4-[8-(5-Methoxy-pyrazin-2-yl)-[1,2,4]triazolo[1,5-a]pyridine-2-ylamino]-phenyl}-piperidine-1-carboxylic acid tert-butyl ester] |  | 1.49

Row | Compound | IC50 (human FAK) [µM] | IC50 (human JAK2) [µM]
18 | CN1CCN(c2cccc(Nc3nc4c(Oc5ccc(S(C)(=O)=O)cc5)cccn4n3)c2)CC1 [Example 214, [8-(4-Methanesulfonyl-phenoxy)-[1,2,4]triazolo[1,5-a]pyridin-2-yl]-[3-(4-methyl-piperazin-1-yl)-phenyl]-amine] |  | 1.65
19 | Cc1cccn2nc(Nc3ccc(S(C)(=O)=O)cc3)nc12 [Example 265, (4-Methanesulfonyl-phenyl)-(8-methyl-[1,2,4]triazolo[1,5-a]pyridin-2-yl)-amine] |  | 2.62
20 | CS(=O)(=O)c1ccc(-c2cccn3nc(Nc4ccc(OS(=O)(=O)C(F)(F)C(F)(F)C(F)(F)C(F)(F)F)cc4)nc23)cc1 [Example 45, 1,1,2,2,3,3,4,4,4-Nonafluoro-butane-1-sulfonic acid 4-[8-(4-methanesulfonyl-phenyl)-[1,2,4]triazolo[1,5-a]pyridin-2-ylamino]-phenyl ester] |  | 0.106
21 | CC(C)(C)OC(=O)N1CCc2ccc(Nc3nc4c(-c5cc(C(F)(F)F)ccc5F)cccn4n3)cc2CC1 [Example 269, [8-(2-Fluoro-5-trifluoromethyl-phenyl)-[1,2,4]triazolo[1,5-a]pyridin-2-ylamino]-[2,3,4,5-tetrahydro-1H-benzo[d]azopin-7-yl]-3-carboxylic acid tert-butyl ester] |  | 0.586
22 | COc1ccccc1Nc1nc2c(-c3ccc(S(C)(=O)=O)cc3)cccn2n1 [Example 25, [8-(4-Methanesulfonyl-phenyl)-[1,2,4]triazolo[1,5-a]pyridin-2-yl]-(2-methoxy-phenyl)-amine] |  | 1.32
23 | CC(C)(C)OC(=O)N1CCc2ccc(Nc3nc4c(-c5cccc6c5OC(F)(F)O6)cccn4n3)cc2CC1 [Example 243] |  | 2.11
24 | CS(=O)(=O)c1ccc(-c2cccn3nc(Nc4ccc(N5CCCCC5)cc4)nc23)cc1 [Example 18, [8-(4-Methanesulfonyl-phenyl)-[1,2,4]triazolo[1,5-a]pyridin-2-yl]-(4-piperidin-1-yl-phenyl)-amine] |  | 0.0006
25 | COc1ccccc1Nc1nc2cccc(-c3cccc(S(C)(=O)=O)c3)n2n1 [Example 80, [5-(3-Methanesulfonyl-phenyl)-[1,2,4]triazolo[1,5-a]pyridin-2-yl]-(2-methoxy-phenyl)-amine] |  | 1.21
26 | CN1CCN(c2ccc(NC(=O)Nc3nc4cccc(-c5ccc(S(C)(=O)=O)cc5)n4n3)cc2)CC1 [Example 90, 1-[5-(4-Methanesulfonyl-phenyl)-[1,2,4]triazolo[1,5-a]pyridin-2-yl]-3-[4-(4-methyl-piperazin-1-yl)-phenyl]-urea] |  | 1.53
27 | CC1(C)CCC(C)(C)c2cc(Nc3nc4c(-c5ccc(S(C)(=O)=O)cc5)cccn4n3)ccc21 [Example 28, [8-(4-Methanesulfonyl-phenyl)-[1,2,4]triazolo[1,5-a]pyridin-2-yl]-(5,5,8,8-tetramethyl-5,6,7,8-tetrahydro-naphthalen-2-yl)-amine] |  | 0.0277
28 | COc1ccc(Nc2nc3c(N4CCN(C)CC4)cccn3n2)cc1 [Example 30, (4-Methoxy-phenyl)-[8-(4-methyl-piperazin-1-yl)-[1,2,4]triazolo[1,5-a]pyridin-2-yl]-amine] |  | 0.441
29 | COc1ccc(Nc2nc3c(NC4CCN(S(C)(=O)=O)CC4)cccn3n2)cc1 [Example 41, N(8)-(1-Methanesulfonyl-piperidin-4-yl)-N(2)-(4-methoxy-phenyl)-[1,2,4]triazolo[1,5-a]pyridine-2,8-diamine] |  | 0.375
30 | CC(C)(C)OC(=O)N1CCC(c2ccc(Nc3nc4c(-c5cnn(-c6ccc(F)cc6)c5)cccn4n3)cc2)CC1 [Example 280, 4-{4-[8-(1-(4-Fluoro-phenyl)-1H-pyrazol-4-yl)-[1,2,4]triazolo[1,5-a]pyridine-2-ylamino]-phenyl}-piperidine-1-carboxylic acid tert-butyl ester] |  | 1.11
31 | CN1CCN(c2cccc(Nc3nc4c(-c5ccccc5S(C)(=O)=O)cccn4n3)c2)CC1 [Example 67, [8-(2-Methanesulfonyl-phenyl)-[1,2,4]triazolo[1,5-a]pyridin-2-yl]-[3-(4-methyl-piperazin-1-yl)-phenyl]-amine] |  | 2.5
32 | CN1CCN(c2ccc(Nc3nc4c(O)cccn4n3)cc2)CC1 [Example 264, 2-[4-(4-Methyl-piperazin-1-yl)-phenylamino]-[1,2,4]triazolo[1,5-a]pyridin-8-ol] |  | 0.567
33 | c1ccc(Nc2nc3ccccn3n2)cc1 [Example 1, Phenyl-[1,2,4]triazolo[1,5-a]pyridin-2-yl-amine] |  | 1.09
34 | COc1cccc(Nc2nc3cccc(-c4cccc(S(C)(=O)=O)c4)n3n2)c1 [Example 79, [5-(3-Methanesulfonyl-phenyl)-[1,2,4]triazolo[1,5-a]pyridin-2-yl]-(3-methoxy-phenyl)-amine] |  | 0.0151
